Test results taken from patent US20230000832A1, “USE OF NEUROPILIN ANTAGONISTS FOR THE TREATMENT OF ENDOMETRIOSIS” (INSERM (Institut National de la Santé et de la Recherche …, priority 2019, published 2023).
Entries after “also recorded” stand apart in the source; their conditions may differ.

Columns and labels:
[1] = test system: human primary unmodified endometrial cell line (TH-EM1); assay: Cell proliferation assay (WST-1) on primary endometrial cells; format: cell-based; settings: for endometrial growth inhibition: high concentration 10^−5M, since 2 days (D2) of exposure; for exposure time to reach maximum efficiency: low concentration between 10^−6 and 10^−7 M, effect stable at D5
Description: (§1) The human primary unmodified endometrial cell line (TH-EM1) describes by Gogusev j et al. 2019 is cultured with Dulbecco modified Eagle medium supplemented with 10% of fetal calf serum (FCS), L-glutamine, and antibiotics (Invitrogen-Thermo Fisher, Cergy-Pontoise, France). Cells were plated in 96-well plates or in 12-well plates to study cell proliferation or apoptosis, respectively.
Cells were plated in 200 μL/well in 96-well plates at 10^4 cells/well and were treated or not with Neuropilin antagonists (NRPa) such as NRPa-47, NRPa-48 at several concentration (10^−5 to 5·10^−8M) alone or in association with different concentrations of progestatif drugs such as Lutenyl® (Nomegestrol acetate) at 3·10^−5 M during 48 h, 72 h or 120 h. WST-1 (Roche®, France) was added for 2 h, then Optical Density was analyzed with a microplate reader (Microplate Manager 5.2, Bio-Rad) at 490 nm to determine the cell viability.

[2] = test system: human primary unmodified endometrial cell line (TH-EM1); assay: Apoptosis assay (Annexin-V/7AAD, flow cytometry); format: cell-based; settings: 10^−6 M, 72 h, versus untreated and DMSO treated cells
Description: as §1
Cells were plated in 2000 μL/well in 12-well plates at 5·10^5 cells/well and were treated or not with Neuropilin antagonists (NRPa) such as NRPa-47, NRPa-48 during 48 h to 72 h at 10^−6M. Then, cells are harvested and stained using Annexin-V/7AAD kit protocol following manufacturer's recommendation. Then, stained cells were analyzed on a fluorescence activated cell sorter (FACS) Calibur flow cytometer (Becton Dickinson Co, Mountain View, Calif.) and data analysis was performed with Flowjo software.

Structure (SMILES)	inhibition at 10 µM ([1]; Homo sapiens, 10^−5M, after 48 h (D2), consistent at 72 h (D3), read-out: decrease of cell survival / inhibition of endometrial cells) [%]	IC50 on primary endometrial cell proliferation ([1]; NRPa alone, concentration range, time course D2 to D5, approximative/calculated)	effect of association with progestogen on cell growth inhibition ([1]; NRPa-47 5·10^−7M (6·10^−7 M) with Lutenyl (Nomegestrol acetate) 3·10^−5 M)	endometrial growth inhibition [1]	exposure time to reach maximum efficiency [1] [days]	induction of apoptosis and necrosis / cell death of endometrial cells [2]	IC50 ([1]; Homo sapiens, NRPa alone, approximative, same value restated in nM) [nM]	IC50 ([1]; Homo sapiens, NRPa alone, concentration range, time course D2 to D5, approximative/calculated) [nM]	effect of association with progestogen on cell growth inhibition ([1]; NRPa-48 5·10^−8M with Lutenyl (Nomegestrol acetate) 3·10^−5 M)
Cc1ccc(-c2nc3ccccc3[nH]2)cc1NC(=S)NC(=O)c1ccc2c(c1)OCCO2 [NRPa-47, N-[5-(1H-benzimidazol-2-yl)-2-methylphenyl]-N′-(2,3-dihydro-1,4-benzodioxin-6-ylcarbonyl)thiourea]	80	10^−6 to 10^−7 M	Additif effect; also recorded: additive effect	rapid endometrial growth inhibition	3	induction of apoptosis; also recorded: induced endometrial cell death	–	–	–
O=C(NC(=S)Nc1cccc(-c2nc3ccccc3[nH]2)c1)c1ccc2c(c1)OCCO2 [NRPa-48, N-[3-(1H-benzimidazol-2-yl)phenyl]-N′-(2,3-dihydro-1,4-benzodioxin-6-ylcarbonyl)thiourea]	–	–	–	rapid endometrial growth inhibition	3	induction of apoptosis; also recorded: induced endometrial cell death	~100	100	synergistic effect
